Experiment [1] has as its system Candida albicans, ATCC 90028. Type of experiment: cell-based. How it is done: The antimicrobial properties of synthesized peptides against bacteria and fungi were evaluated using minimum inhibitory concentration (MIC) and minimum bactericidal/fungicidal concentration (MBC/MFC) tests (Wiegand et al. 2008). The tested species include Streptococcus mutans, UA159; Lacticaseibacillus casei, American Type Culture Collection (ATCC) 334; and Candida albicans, ATCC 90028. A 10 μL aliquot of bacterial culture (10^6 CFU/mL) in brain heart infusion (BHI) broth was added to 100 μL serial two-fold dilutions of experimental solutions. The optical density values at 660 nm were measured after 18 h of incubation. To determine the MBC, 10 μL of bacterial culture was taken from the well of MIC, and wells before and after the well of MIC, and transferred to blood agar. The test protocol for fungi was similar: the culture medium was a Roswell Park Memorial Institute (RPMI) 1640 Medium, the absorbance was measured at 520 nm, and Sabouraud dextrose agar was used for the MFC test. Chlorhexidine and medium were used as the positive and negative controls.

Experiment [2] concerns Streptococcus sobrinus ATCC 33478. In kind it is cell-based. How it is done:
(§1) Common oral pathogenic bacterial strains were selected for this study. Streptococcus mutans ATCC 35668, Streptococcus sobrinus ATCC 33478, Lactobacillus acidophilus ATCC 9224, Lactobacillus rhamnosus ATCC10863, Actinomyces naeslundii ATCC 12104, Enterococcus faecalis ATCC 29212, Porphyromonas gingivalis ATCC 33277, and Actinobacillus actinomycetemcomitans ATCC 29523. All the strains were cultured anaerobically.
(§2) Brain heart infusion (BHI) medium was used for culture of S. mutans, S. sobrinus, L. acidophilus, L. rhamnosus, A. naeslundii, E. faecalis, and A. actinomycetemcomitans, whereas p.g. broth was used for culture of Porphyromonas gingivalis. The standard dilution method in a 96-well microplate was conducted in order to evaluate the antimicrobial efficacy of GAPI. Each well was filled with […] GAPI dilutions. In addition, serial twofold dilutions in concentrations ranging from 1280 μM to 1.25 μM were prepared. A 10 μL bacterial culture (10^6 CFU/mL) was added. Chlorhexidine was used as positive control, and medium was used as negative control. The plates were then anaerobically incubated at 37° C. for 24 h. The absorbance was measured at a wavelength of 660 nm in order to analyze the growth of microorganisms. […] The MBC endpoint was the lowest concentration at which 99.9% of the bacterial population was killed, which thus means the absence of bacteria. The morphology of the bacteria and fungi treated with synthesized peptides was analysed using transmission electron microscopy (TEM) (Philips CM100, Philips/FEI Corporation, Eindhoven, Holland). The sample was prepared following a previous study (Niu et al. 2021d). Copper grids were used to contain the semi-thin sections of bacteria/fungi for examination.

The test system of experiment [3] is Streptococcus mutans ATCC 35668. In kind it is cell-based. On the procedure:
as §1, §2

In experiment [4] the test system is Lactobacillus acidophilus ATCC 9224. In kind it is cell-based. On the procedure: as §1, §2
The subject of experiment [5] is Porphyromonas gingivalis ATCC 33277. Type of experiment: cell-based. How it is done:
as §1, §2

Experiment [6] has as its system Actinomyces naeslundii ATCC 12104. In kind it is cell-based. How it is done: as §1, §2
Experiment [7] relates to Enterococcus faecalis ATCC 29212. In kind it is cell-based. How it is done: as §1, §2
For experiment [8], the system named is Lactobacillus rhamnosus ATCC10863. Type of experiment: cell-based. How it is done:
as §1, §2

In experiment [9] the test system is Actinobacillus actinomycetemcomitans ATCC 29523. In kind it is cell-based. How it is done:
as §1, §2

Experiment [10] in a line: Remineralizing effects on enamel, chemical pH cycling model (SEM-EDS, Micro-CT, XRD). Also on record: species or system human. The following applies: 160 μM twice daily, pH cycling 8 days, n = 8. On the procedure:
Ten enamel slices were cut from extracted sound human molars. Each slice was separated into four blocks. A total of 40 enamel blocks were prepared. Then the surface of the enamel block was half-covered by an acid-resistant varnish. The exposed half was the experimental surface, and the varnished half was the internal control. Before use, all the enamel blocks were sterilized via autoclave (Niu et al. 2021d; Yu et al. 2018).
The pH-cycling procedure (16 h-demineralization at pH 4.5 and 8 h-remineralization at pH 7.0) was performed to enamel blocks for 8 days. The formula for demineralizing/remineralizing solution was employed from a previous study (Yu et al. 2018). The enamel blocks from the same enamel slice were treated twice daily with 160 μM GAPI (GAPI Group), 160 μM gallic acid (GA Group), 160 μM polyphemusin-I (PI Group), and sterile deionized water (Water Group). All enamel blocks after pH cycling were involved in sequent assessments.
The structure of the enamel surface was examined using SEM (n=8 per group) (Niu et al. 2021d). The elemental analysis of enamel surface was conducted using affiliated energy-dispersive X-ray spectroscopy (EDS). The calcium to phosphorus molar ratio was calculated (Niu et al. 2022). The mineral loss and lesion depth on the enamel blocks were assessed using microcomputed tomography (Micro-CT) (1076, SkyScan, Antwerp, Belgium) (n=8 per group) (Niu et al. 2022). The diffraction patterns of the enamel blocks were evaluated using X-ray diffraction analysis (XRD) (Rigaku SmartLab 9 kW, […]) (n=2 per group) (Yu et al. 2018).

≈ marks a conversion by molar mass, not a printed value. Where a SMILES comes first, the peptide text is derived from it.

For `CC(C)[C@@H]1NC(=O)[C@H](CCCN=C(N)N)NC(=O)[C@H](Cc2ccccc2)NC(=O)[C@@H](NC(=O)[C@H](Cc2c[nH]c3ccccc23)NC(=O)[C@H](CCCN=C(N)N)NC(=O)[C@H](CCCN=C(N)N)NC(=O)c2cc(O)c(O)c(O)c2)CSSC[C@@H](C(=O)N[C@@H](CCCN=C(N)N)C(=O)O)NC(=O)[C@H](CCCCN)NC(=O)[C@H](CCCN=C(N)N)NC(=O)[C@H](Cc2ccc(O)cc2)NC(=O)[C@@H]2CSSC[C@H](NC1=O)C(=O)N[C@@H](Cc1ccc(O)cc1)C(=O)N[C@@H](CCCN=C(N)N)C(=O)NCC(=O)N[C@@H](Cc1ccccc1)C(=O)N2` [GAPI, Gallic-Acid-Polyphemusin-I] (HELM PEPTIDE1{[O=C(c1cc(O)c(O)c(O)c1)[*:2]].R.R.W.C.F.R.V.C.Y.R.G.F.C.Y.R.K.C.R}$PEPTIDE1,PEPTIDE1,5:R3-18:R3|PEPTIDE1,PEPTIDE1,9:R3-14:R3$$$V2.0), the minimum inhibitory concentration in experiment [1] worked out at 80 µM (≈ 209 µg/mL). This molecule also yielded an MBC/MFC in experiment [1] (μM) of 40. The MIC stood at 20 in [1] (μM); 80 µM (≈ 209 µg/mL) in experiment [2] (ATCC 33478, anaerobic, 24 h); 80 µM (≈ 209 µg/mL) in [3] (ATCC 35668, anaerobic, 24 h); 40 µM (≈ 104 µg/mL) in experiment [4] (ATCC 9224, anaerobic, 24 h); 320 µM (≈ 834 µg/mL) in experiment [5] (ATCC 33277, anaerobic, 24 h); 160 µM (≈ 417 µg/mL) in [6] (ATCC 12104, anaerobic, 24 h). The MIC in [7] (ATCC 29212, anaerobic, 24 h) is 160 µM (≈ 417 µg/mL); in experiment [8] (ATCC 10863, anaerobic, 24 h) it was 20 µM (≈ 52.1 µg/mL); in [9] (ATCC 29523, anaerobic, 24 h), 160 µM (≈ 417 µg/mL). Further, the MBC – broadly, the lowest tested concentration that kills the bacteria rather than only halting them – in experiment [2] (ATCC 33478) came out at 320 µM (≈ 834 µg/mL); in experiment [3] (ATCC 35668), 160 µM (≈ 417 µg/mL); in experiment [4] (ATCC 9224), 80 µM (≈ 209 µg/mL); in [5] (ATCC 33277), 640 µM (≈ 1670 µg/mL); in experiment [6] (ATCC 12104) it was 640 µM (≈ 1670 µg/mL); in [7] (ATCC 29212) it was 640 µM (≈ 1670 µg/mL). In addition, the MBC was 160 µM (≈ 417 µg/mL) in experiment [8] (ATCC 10863) and 320 µM (≈ 834 µg/mL) in experiment [9] (ATCC 29523). Besides, the “Calcium to phosphate molar ratio” value in experiment [10] (EDS) came to 1.81 ± 0.05. Also, the Lesion depth in experiment [10] (Micro-CT) was 64 ± 7 μm. The Mineral loss in experiment [10] (Micro-CT) is reported as 0.89 ± 0.20 gHApcm^−3.

The record behind these values is patent publication US20250090441A1, “ANTI-CARIES PEPTIDES WITH ANTIMICROBIAL AND REMINERALIZING PROPERTIES AND METHODS THEREOF” (THE UNIVERSITY OF HONG KONG, priority 2023, published 2025).
